Experimental data taken from PMC11053447, “Human ABC and SLC Transporters: The Culprit Responsible for Unspecific PSMA-617 Uptake?” (Pharmaceuticals, 2024).
Read-outs that look alike come from different tables or passages of the source.

What was measured:
[1] = target: MRP1 (Homo sapiens, UniProt P33527); conditions: for Relative inhibition / ATP dependent transport / Relative ATP dependent transport: E217βG probe; for ATP dependent transport / Relative ATP dependent transport: mean (n=3) ± SD
Experimental: The incubations were carried out in the presence of 4 mM ATP or AMP to distinguish between transporter-mediated uptake and passive diffusion into the vesicles. […] Afterwards, the reaction mixtures were pre-incubated for 15 min at 37 °C for MRP1 or at 32 °C for BCRP, MDR1 and MRP4, respectively. The transporter assay was initiated through the addition of 25 μL of pre-warmed 12 mM MgATP (or 12 mM AMP in assay buffer as a background control). The reactions were quenched through the addition of 200 μL of ice-cold washing buffer and immediate filtration via glass fiber filters mounted onto a 96-well plate (filter plate). The filters were washed (5 × 200 μL of ice-cold washing buffer) and dried, and the amount of probe substrate inside the filtered vesicles was determined using LSC. The experiments were conducted in triplicate.
Calculation of ATP-dependent transport and inhibition for vesicular transport inhibition
For all wells the amount of the translocated probe substrate was determined in counts per minute (cpm).
ATP-dependent transport (pmol/mg protein/min) is calculated for each concentration using the following
𝐴𝑐𝑐𝐴𝑇𝑃 ∙ 𝑉 ∙ 𝐶𝐶 𝐴𝑐𝑐𝐴𝑀𝑃 ∙𝑉 ∙𝐶𝐶
𝐴𝑇𝑃 − 𝑑𝑒𝑝𝑒𝑛𝑑𝑒𝑛𝑡 𝑎𝑐𝑐𝑢𝑚𝑢𝑙𝑎𝑡𝑖𝑜𝑛 = ( 𝑇𝐶𝑃𝑀 𝑠𝑢𝑏) − ( 𝑇𝐶𝑃𝑀 𝑠𝑢𝑏)
• AccATP: probe substrate accumulation with ATP (cpm)
• AccAMP: probe substrate accumulation with AMP (cpm)
• Tcpm: cpm in dosing solution V: volume per well (µL)
• CCsub: probe substrate concentration (µM)
• Prot: total protein per well (mg)
• t: incubation time (min)
Relative ATP-dependent transport (%) values were calculated using the following equation:
𝑅𝑒𝑙𝑎𝑡𝑖𝑣𝑒 𝐴𝑇𝑃 − 𝑑𝑒𝑝𝑒𝑛𝑑𝑒𝑛𝑡 𝑡𝑟𝑎𝑛𝑠𝑝𝑜𝑟𝑡 (%) = 𝐴 − 𝐵 ∙ 100
• A: amount of translocated substrate in the presence of test substance (TS) and ATP
• B: amount of translocated substrate in the presence of test substance (TS) and AMP
• C: amount of translocated substrate in the presence of solvent and ATP
• D: amount of translocated substrate in the presence of solvent and AMP
Relative inhibition (%) is calculated by setting probe substrate transport in the absence of test substance as
𝑅𝑒𝑙𝑎𝑡𝑖𝑣𝑒 𝑖𝑛ℎ𝑖𝑏𝑖𝑡𝑖𝑜𝑛 (%) = 𝐴𝑐𝑐𝑆𝑝𝑒𝑐𝑖𝑓𝑖𝑐,𝑥 ∙100
• Accspecific,x: transporter specific accumulation for a given sample (pmol/mg/min)
• Accspecific,vehicle: transporter specific accumulation for a solvent control (pmol/mg/min)

[2] = target: T1, MRP4 (Homo sapiens, UniProt O15439); assay: Vesicular transport inhibition assay (ABC), MRP4-mediated DHEAS transport, HEK293 membrane vesicles; assay type: in vitro ADME; conditions: for Relative inhibition / ATP dependent transport / Relative ATP dependent transport: DHEAS probe; for ATP dependent transport / Relative ATP dependent transport: mean (n=3) ± SD
T1 construct: host or cells: HEK293 (membrane vesicles)
T1 sequence (O15439 1-1325): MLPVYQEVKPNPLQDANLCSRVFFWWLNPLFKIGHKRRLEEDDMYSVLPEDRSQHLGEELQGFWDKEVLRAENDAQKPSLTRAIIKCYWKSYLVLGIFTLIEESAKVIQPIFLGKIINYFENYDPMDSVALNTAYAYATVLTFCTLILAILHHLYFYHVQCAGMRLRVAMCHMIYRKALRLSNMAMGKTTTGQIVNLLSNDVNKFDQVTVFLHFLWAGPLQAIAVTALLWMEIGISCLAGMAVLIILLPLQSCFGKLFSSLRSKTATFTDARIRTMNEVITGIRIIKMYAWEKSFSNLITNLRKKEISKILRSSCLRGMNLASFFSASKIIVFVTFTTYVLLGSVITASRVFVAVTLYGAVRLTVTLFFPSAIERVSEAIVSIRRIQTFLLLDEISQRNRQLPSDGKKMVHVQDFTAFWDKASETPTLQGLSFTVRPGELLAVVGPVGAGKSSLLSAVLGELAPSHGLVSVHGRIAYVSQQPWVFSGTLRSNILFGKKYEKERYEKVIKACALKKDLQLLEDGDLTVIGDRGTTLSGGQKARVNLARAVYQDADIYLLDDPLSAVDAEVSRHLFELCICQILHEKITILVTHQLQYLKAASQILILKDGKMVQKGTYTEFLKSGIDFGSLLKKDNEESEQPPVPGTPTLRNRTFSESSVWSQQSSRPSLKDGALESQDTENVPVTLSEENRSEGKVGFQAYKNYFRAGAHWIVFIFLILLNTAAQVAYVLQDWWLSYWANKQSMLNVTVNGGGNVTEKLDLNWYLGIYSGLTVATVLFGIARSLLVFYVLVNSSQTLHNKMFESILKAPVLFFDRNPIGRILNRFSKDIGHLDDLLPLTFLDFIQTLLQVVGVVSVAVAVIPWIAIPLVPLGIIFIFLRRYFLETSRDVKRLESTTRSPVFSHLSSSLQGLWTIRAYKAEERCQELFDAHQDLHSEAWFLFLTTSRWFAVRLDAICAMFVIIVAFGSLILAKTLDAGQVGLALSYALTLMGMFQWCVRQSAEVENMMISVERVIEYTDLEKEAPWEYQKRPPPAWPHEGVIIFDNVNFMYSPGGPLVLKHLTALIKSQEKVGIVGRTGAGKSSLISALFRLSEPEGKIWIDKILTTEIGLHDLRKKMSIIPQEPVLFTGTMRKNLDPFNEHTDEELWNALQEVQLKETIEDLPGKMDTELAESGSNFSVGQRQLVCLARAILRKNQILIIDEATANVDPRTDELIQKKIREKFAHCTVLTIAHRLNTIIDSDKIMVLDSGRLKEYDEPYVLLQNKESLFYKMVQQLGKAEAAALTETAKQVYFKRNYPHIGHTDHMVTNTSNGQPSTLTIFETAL

[3] = 0.30 and 3.00 µM, inhibition >20% defined as significant

Chain of MRP1 (P33527 whole entry): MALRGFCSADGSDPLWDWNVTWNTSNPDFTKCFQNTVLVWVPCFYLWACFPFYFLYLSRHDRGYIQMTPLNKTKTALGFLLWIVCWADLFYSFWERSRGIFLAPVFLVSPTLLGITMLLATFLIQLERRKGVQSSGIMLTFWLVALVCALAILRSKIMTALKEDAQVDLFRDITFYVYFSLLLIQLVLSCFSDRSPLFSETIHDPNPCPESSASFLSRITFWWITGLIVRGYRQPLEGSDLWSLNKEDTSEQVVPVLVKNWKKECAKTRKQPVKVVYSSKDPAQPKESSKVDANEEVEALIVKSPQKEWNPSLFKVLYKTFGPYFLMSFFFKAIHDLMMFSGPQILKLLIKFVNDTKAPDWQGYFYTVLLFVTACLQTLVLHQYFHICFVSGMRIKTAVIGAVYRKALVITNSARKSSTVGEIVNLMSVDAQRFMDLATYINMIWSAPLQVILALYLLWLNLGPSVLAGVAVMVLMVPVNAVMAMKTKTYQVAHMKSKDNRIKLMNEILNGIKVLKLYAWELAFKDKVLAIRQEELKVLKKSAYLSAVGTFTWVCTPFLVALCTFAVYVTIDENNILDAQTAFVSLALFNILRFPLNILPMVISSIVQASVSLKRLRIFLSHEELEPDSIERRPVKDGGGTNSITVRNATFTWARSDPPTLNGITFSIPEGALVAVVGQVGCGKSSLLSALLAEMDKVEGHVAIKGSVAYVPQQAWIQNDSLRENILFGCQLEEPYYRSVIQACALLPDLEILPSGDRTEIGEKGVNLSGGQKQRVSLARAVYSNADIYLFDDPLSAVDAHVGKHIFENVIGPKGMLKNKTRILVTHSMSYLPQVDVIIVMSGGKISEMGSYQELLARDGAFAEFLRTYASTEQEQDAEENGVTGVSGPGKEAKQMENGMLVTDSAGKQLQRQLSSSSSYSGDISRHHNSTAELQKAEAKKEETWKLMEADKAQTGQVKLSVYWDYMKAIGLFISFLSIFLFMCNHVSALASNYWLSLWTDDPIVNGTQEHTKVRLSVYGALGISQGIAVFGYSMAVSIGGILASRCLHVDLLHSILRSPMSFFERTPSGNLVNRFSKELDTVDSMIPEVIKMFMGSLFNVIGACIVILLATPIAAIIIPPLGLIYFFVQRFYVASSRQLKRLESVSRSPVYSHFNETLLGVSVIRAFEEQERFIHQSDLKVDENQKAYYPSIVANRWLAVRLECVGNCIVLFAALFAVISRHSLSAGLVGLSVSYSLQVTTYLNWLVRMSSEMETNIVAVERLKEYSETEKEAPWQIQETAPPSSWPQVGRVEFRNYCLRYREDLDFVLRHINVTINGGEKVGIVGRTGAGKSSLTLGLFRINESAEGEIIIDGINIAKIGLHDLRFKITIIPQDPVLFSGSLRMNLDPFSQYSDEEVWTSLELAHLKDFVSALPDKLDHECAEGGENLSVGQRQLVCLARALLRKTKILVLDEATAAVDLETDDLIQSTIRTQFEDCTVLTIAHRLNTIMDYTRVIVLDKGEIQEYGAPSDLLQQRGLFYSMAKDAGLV

## [3H]C(c1ccc2ccccc2c1)C([3H])(NC(=O)C1CCC(CNC(=O)CN2CCN(CC(=O)[O-])CCN(CC(=O)[O-])CCN(CC(=O)[O-])CC2)CC1)C(=O)NCCCCC(NC(=O)NC(CCC(=O)O)C(=O)O)C(=O)O.[Lu+3] (stereo not drawn) [([α,β-^3H]Nal)Lu-PSMA-617]
[1]; [3]
  Inhibitor assessment (MRP1): no inhibitor
[1]; test substance 0.30 µM nominal
  Relative inhibition: 9%
  ATP dependent transport: 734.00 ± 31.29 pmol/mg/min
  Relative ATP dependent transport: 91.45 ± 7.39 % of control
[1]; test substance 3.00 µM nominal
  Relative inhibition: 9%
  ATP dependent transport: 730.00 ± 37.02 pmol/mg/min
  Relative ATP dependent transport: 90.95 ± 7.76 % of control
[2]; [3]
  Inhibitor assessment (MRP4): no inhibitor
[2]; test substance 0.30 µM nominal
  Relative inhibition: -1%
  ATP dependent transport: 13761.00 ± 400.40 pmol/mg/min
  Relative ATP dependent transport: 100.94 ± 4.07 % of control
[2]; test substance 3.00 µM nominal
  Relative inhibition: -6%
  ATP dependent transport: 14510.33 ± 290.35 pmol/mg/min
  Relative ATP dependent transport: 106.44 ± 3.66 % of control
